# Experimental data reported in paper PMC6321124, “Hydrophilic Linear Peptide with Histidine and Lysine Residues as a Key Factor Affecting Antifungal Activity” (International Journal of Molecular Sciences, 2018).
# Residues, ends and D or L forms follow the SMILES beside them.
# Tests used:
# [1] = test system: Aspergillus flavus (KCTC 6905); conditions: KCTC 6905, 48 h, pH 6
# [2] = test system: C. gloeosporioides (KCTC 6169); conditions: KCTC 6169, 48 h, pH 6
# [3] = test system: C. albicans (KCTC 7270); conditions: KCTC 7270, 48 h, pH 6
# [4] = test system: C. albicans (CCARM 14001, fluconazole-resistant strain); conditions: CCARM 14001, 48 h, pH 6
# [5] = test system: C. albicans (CCARM 14004, fluconazole-resistant strain); conditions: CCARM 14004, 48 h, pH 6
# [6] = test system: C. albicans (CCARM 14007, amphotericin B-resistant strain); conditions: CCARM 14007, 48 h, pH 6
# [7] = test system: C. albicans (CCARM 14020, fluconazole-resistant strain); conditions: CCARM 14020, 48 h, pH 6
# [8] = test system: C. krusei (CCARM 14017); conditions: CCARM 14017, 48 h, pH 6
# [9] = test system: C. parapsilosis (CCARM 14016); conditions: CCARM 14016, 48 h, pH 6
# [10] = test system: F. graminearum (KCTC 16656); conditions: KCTC 16656, 48 h, pH 6
# [11] = test system: F. moniliforme (KCTC 6149); conditions: KCTC 6149, 48 h, pH 6
# [12] = test system: F. oxysporum (KCTC 16909); conditions: KCTC 16909, 48 h, pH 6
# [13] = test system: F. solani (KCTC 6326); conditions: KCTC 6326, 48 h, pH 6
# [14] = test system: Tricophyton rubrum (KCTC 6345); conditions: KCTC 6345, 48 h, pH 6
# [15] = test system: Trichoderma virens (KCTC 16924); conditions: KCTC 16924, 48 h, pH 6
# [16] = test system: Trichoderma viride (KCTC 16992); conditions: KCTC 16992, 48 h, pH 6
# [17] = test system: C. albicans cells; assay: Intracellular ROS (DCFH-DA, flow cytometry); assay type: cell-based; conditions: peptides at MICs or 10 mM H2O2 for 6 h, DCFH-DA 20 min
# Method: DCF fluorescence was measured using 5000 events/sample following excitation with a 488-nm wavelength laser and reading through a 525/40 biopass filter using a CytoFLEX flow cytometer.
# [18] = test system: HaCaT cells; assay: Cytotoxicity (MTT assay); assay type: cell-based; conditions: at 3.13 µM, 24 h
# [19] = Calcein leakage, artificial mammalian model membrane; conditions: PC/Ch/SM (1:1:1) LUVs, 10 μM lipids
# Method: The dried lipids were prehydrated with dye buffer solution (80 mM calcein, 10 mM MES, 50 mM NaCl, pH 6.2), vortexed for 1 min, and incubated for 30 min at 50 °C. The suspension was freeze-thawed in liquid nitrogen for nine cycles to generate large unilamellar vesicles (LUVs) and extruded 30 times through polycarbonate filters (two stacked 0.2-μm pore-size filters) using an Avanti Mini-Extruder (Avanti Polar Lipids Inc., Alabaster, AL, USA). Calcein-entrapped vesicles were separated from free calcein by gel filtration chromatography on a Sephadex G-50 column. Entrapped LUVs in suspensions containing 10 μM lipids were incubated with various concentrations of the peptide. The fluorescence of the released calcein was assessed with a microtiter SpectraMax M5 reader at an excitation wavelength of 480 nm and an emission wavelength of 520 nm. Complete (100%) release was achieved via the addition of Triton X-100 to a final concentration of 0.1% (v/v). The apparent percentage of calcein release was calculated in accordance with the following equation: Release (%) = 100 × (F − F0)/(Ft − F0) (2) where F and Ft represent the fluorescence intensity after the addition of the peptides and Triton X-100, respectively, and F0 represents the fluorescence of the intact vesicles.
# [20] = test system: C. albicans cells; assay: SYTOX Green uptake (flow cytometry); assay type: cell-based; conditions: peptides at MICs for 30 min, 0.5 μM SYTOX Green pre-incubated 15 min
# Method: C. albicans cells were pre-incubated with 0.5 μM SYTOX Green for 15 min in the dark, incubated with the indicated peptides at MICs for 30 min, and then analyzed using a CytoFLEX flow cytometer (Beckman Coulter Inc., Brea, CA, USA).
# [21] = test system: C. albicans; conditions: peptides at MICs for 6 h, measured at 550 nm
Compound,MIC [1] [µM],MIC [2] [µM],MIC [3] [µM],MIC [4] [µM],MIC [5] [µM],MIC [6] [µM],MIC [7] [µM],MIC [8] [µM],MIC [9] [µM],MIC [10] [µM],MIC [11] [µM],MIC [12] [µM],MIC [13] [µM],MIC [14] [µM],MIC [15] [µM],MIC [16] [µM],other results
NCCCC[C@H](NC(=O)[C@H](CCCCN)NC(=O)[C@H](Cc1c[nH]cn1)NC(=O)[C@H](CCCCN)NC(=O)[C@H](CCCCN)NC(=O)[C@H](Cc1c[nH]cn1)NC(=O)[C@H](CCCCN)NC(=O)[C@H](CCCCN)NC(=O)[C@H](Cc1c[nH]cn1)NC(=O)[C@H](CCCCN)NC(=O)[C@H](CCCCN)NC(=O)[C@H](Cc1c[nH]cn1)NC(=O)[C@H](CCCCN)NC(=O)[C@H](CCCCN)NC(=O)[C@H](Cc1c[nH]cn1)NC(=O)[C@H](CCCCN)NC(=O)[C@H](CCCCN)NC(=O)[C@H](Cc1c[nH]cn1)NC(=O)[C@H](CCCCN)NC(=O)[C@H](CCCCN)NC(=O)[C@H](Cc1c[nH]cn1)NC(=O)[C@H](CCCCN)NC(=O)[C@H](CCCCN)NC(=O)[C@@H](N)Cc1c[nH]cn1)C(N)=O [(HKK)8] (H-HKKHKKHKKHKKHKKHKKHKKHKK-NH2),2,1,8,8,8,8,8,4,8,4,2,2,1,2,4,1,–
NCCCC[C@H](NC(=O)[C@H](CCCCN)NC(=O)[C@H](Cc1c[nH]cn1)NC(=O)[C@H](CCCCN)NC(=O)[C@H](CCCCN)NC(=O)[C@H](Cc1c[nH]cn1)NC(=O)[C@H](CCCCN)NC(=O)[C@H](CCCCN)NC(=O)[C@@H](N)Cc1c[nH]cn1)C(N)=O [(HKK)3] (H-HKKHKKHKK-NH2),16,8,64,64,64,64,64,16,32,32,16,32,16,32,16,16,–
NCCCC[C@H](NC(=O)[C@H](CCCCN)NC(=O)[C@@H](N)Cc1c[nH]cn1)C(N)=O [(HKK)1] (H-His-Lys-Lys-NH2),256,1024,1024,1024,1024,1024,1024,512,1024,512,256,256,256,512,512,256,–
NCCCC[C@H](NC(=O)[C@H](CCCCN)NC(=O)[C@H](Cc1c[nH]cn1)NC(=O)[C@H](CCCCN)NC(=O)[C@H](CCCCN)NC(=O)[C@H](Cc1c[nH]cn1)NC(=O)[C@H](CCCCN)NC(=O)[C@H](CCCCN)NC(=O)[C@H](Cc1c[nH]cn1)NC(=O)[C@H](CCCCN)NC(=O)[C@H](CCCCN)NC(=O)[C@H](Cc1c[nH]cn1)NC(=O)[C@H](CCCCN)NC(=O)[C@H](CCCCN)NC(=O)[C@H](Cc1c[nH]cn1)NC(=O)[C@H](CCCCN)NC(=O)[C@H](CCCCN)NC(=O)[C@@H](N)Cc1c[nH]cn1)C(N)=O [(HKK)6] (H-HKKHKKHKKHKKHKKHKK-NH2),4,1,16,16,16,16,16,4,16,8,2,2,2,8,8,2,–
NCCCC[C@H](NC(=O)[C@H](CCCCN)NC(=O)[C@H](Cc1c[nH]cn1)NC(=O)[C@H](CCCCN)NC(=O)[C@H](CCCCN)NC(=O)[C@H](Cc1c[nH]cn1)NC(=O)[C@H](CCCCN)NC(=O)[C@H](CCCCN)NC(=O)[C@H](Cc1c[nH]cn1)NC(=O)[C@H](CCCCN)NC(=O)[C@H](CCCCN)NC(=O)[C@@H](N)Cc1c[nH]cn1)C(N)=O [(HKK)4] (H-HKKHKKHKKHKK-NH2),8,2,32,32,32,32,32,4,32,16,4,4,4,16,16,4,–
OO [H2O2],–,–,–,–,–,–,–,–,–,–,–,–,–,–,–,–,intracellular ROS generation [17]: high levels of ROS generation
"CC[C@H](C)[C@H](NC(=O)CN)C(=O)NCC(=O)N[C@@H](C)C(=O)N[C@H](C(=O)N[C@@H](CC(C)C)C(=O)N[C@@H](CCCCN)C(=O)N[C@H](C(=O)N[C@@H](CC(C)C)C(=O)N[C@H](C(=O)N[C@H](C(=O)NCC(=O)N[C@@H](CC(C)C)C(=O)N1CCC[C@H]1C(=O)N[C@@H](C)C(=O)N[C@@H](CC(C)C)C(=O)N[C@H](C(=O)N[C@@H](CO)C(=O)N[C@@H](Cc1c[nH]c2ccccc12)C(=O)N[C@H](C(=O)N[C@@H](CCCCN)C(=O)N[C@@H](CCCNC(=N)N)C(=O)N[C@@H](CCCCN)C(=O)N[C@@H](CCCNC(=N)N)C(=O)N[C@@H](CCC(N)=O)C(=O)N[C@@H](CCC(N)=O)C(N)=O)[C@@H](C)CC)[C@@H](C)CC)[C@@H](C)O)[C@@H](C)O)C(C)C)C(C)C [Melittin, melittin, reference compound]",8,16,8,8,8,8,8,8,8,8,8,8,8,8,32,4,cell death [18]: 100%; calcein leakage from mammalian artificial liposomes (in words) [19]: concentration-dependent calcein leakage
histatin 5,–,–,–,–,–,–,–,–,–,–,–,–,–,–,–,–,SYTOX Green uptake (membrane permeabilization) [20]: did not induce membrane damage; relative cytochrome c levels in the cytosol [21]: only minor alterations
NCCCC[C@H](NC(=O)[C@H](CCCCN)NC(=O)[C@H](Cc1c[nH]cn1)NC(=O)[C@H](CCCCN)NC(=O)[C@H](CCCCN)NC(=O)[C@@H](N)Cc1c[nH]cn1)C(N)=O [(HKK)2] (H-HKKHKK-NH2),64,16,64,64,64,64,64,64,64,64,32,64,32,64,32,64,–
